Tests used:
SW620 (colon cancer) = experiment: SRB cytotoxicity assay, SW620; assay type: cell-based; conditions: Homo sapiens, SW-620, 48 h incubation, mean ± SEM of 3 independent experiments
Method in brief: (§1)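 Cells in DMEM were seeded at 3 × 10^4 cells/mL and preincubated 24 h at 37 °C, 5% CO2. Compounds were added in medium at 1% DMSO for 48 h. Cell density was read by sulforhodamine B staining, with IC50 by probit analysis as the mean of three independent screens.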

PC3 (prostate cancer) = experiment: SRB cytotoxicity assay, PC3; assay type: cell-based; conditions: Homo sapiens, 48 h incubation, mean ± SEM of 3 independent experiments
Method in brief: as §1

NCI-H23 (lung cancer) = experiment: SRB cytotoxicity assay, NCI-H23; assay type: cell-based; conditions: Homo sapiens, 48 h incubation, mean ± SEM of 3 independent experiments
Method in brief: as §1

[1] = Cytotoxicity on normal mesenchymal stem cells; assay type: cell-based; conditions: human bone marrow-derived mesenchymal stem cells; mean ± SEM; read-out: Cytotoxicity (IC50) MSCs
U937 cells = experiment: Annexin V-FITC/PI apoptosis assay; assay type: cell-based, human; conditions: 24 h
Description: The Annexin V-FITC/PI dual staining assay was used to determine the percentage of apoptotic cells. U937 cells (5 × 10^5/mL per well) were plated in 6-well culture plates and allowed to grow for 24 h. In our first experiment, we examined the effects of 4f, 4h, 4n, 4o, 4p, and PAC-1 on apoptosis at 50 µM. In the second experiment, we examined the dose-dependent effect of 4o at 5, 10, and 30 µM and PAC-1 at 30 µM on apoptosis. The cells were treated with compounds for 24 h, and then harvested. The harvested cells were washed twice with ice-cold PBS and incubated in the dark at room temperature in […] of 1 × binding buffer containing 1 µL Annexin V-FITC and […] PI. After 15 min incubation, cells were analyzed for percentage undergoing apoptosis using a FACScalibur flow cytometer (BD Biosciences). The data were processed using Cell Quest Pro software (BD Biosciences).
Figure 5 Apoptosis (Annexin V/PI) analysis of cells after treatment with some compounds. U937 cells were treated with compounds (50 µM) for 24 h. The harvested cells were incubated with Annexin V-FITC and PI and analyzed by using flow cytometry. Ten thousand cells were acquired (n = 3). UN untreated, VH vehicle (DMSO. 0.1%). Representative dot plots (A). Live cells, left down in dot plot. Early apoptotic cells, right down. Necrotic cells, left up, Late apoptotic cells, right up. Bar graph of late apoptotic cells (B). p values were calculated using one-way ANOVA in GraphPad Software (San Diego, CA, USA). *p < 0.01 vs VH control. TEXT PRINTED IN THE PICTURE: (A) PAC-1: 10.40%; 29.30%; 12.70% | (A) 4f: 0.52%; 6.05%; 5.41% | (A) 4h: 0.89%; 13.20%; 7.67% | (A) 4n: 0.44%; 6.83%; 5.73% | (A) 4o: 0.67%; 17.30%; 8.17% | (A) 4p: 1.60%; 13.00%; 5.86% DOUBTS OF THE COPYIST ABOUT THIS PICTURE: The quadrant percentages are in small italic print over the dot plots, so 3, 5, 6, 8 and 9 cannot always be told apart. All values given are best readings. / PAC-1: 10.40%, 29.30% and 12.70% are best readings (29.30 could be 28.30) / 4f: 0.52%, 6.05% and 5.41% are best readings (6.05 could be 6.06 or 8.05) / 4h: 0.89%, 13.20% and 7.67% are best readings (0.89 could be 0.86 or 0.69) / 4n: 0.44%, 6.83% and 5.73% are best readings (6.83 could be 6.63 or 6.88) / 4o: 0.67%, 17.30% and 8.17% are best readings (8.17 could be 6.17) / 4p: 1.60%, 13.00% and 5.86% are best readings (5.86 could be 5.88 or 5.66) / The picture prints no measure for the percentages; only their quadrant position tells them apart. They are listed upper left, upper right, lower right. / The plots UN (0.70%, 2.31%, 3.03%) and VH (1.75%, 2.43%, 3.57%) are controls, not substances, and are left out of the lines.
Figure 6 Apoptosis (Annexin V/PI) analysis of cells after treatment with different concentrations of compound 4o. U937 cells were treated with compound 4o at 5, 10 and 30 µM or PAC-1 (30 µM) for 24 h. The harvested cells were incubated with Annexin V-FITC and PI and analyzed by using flow cytometry. Ten thousand cells were acquired (n = 3). UN untreated, VH vehicle (DMSO. 0.1%). Representative dot plots (A). Live cells, left down in dot plot. Early apoptotic cells, right down. Necrotic cells, left up, Late apoptotic cells, right up. Bar graph of late apoptotic cells (B). p values were calculated using one-way ANOVA in GraphPad Software (San Diego, CA, USA). *p < 0.01 vs VH control.

[2] = test system: SW620, PC-3, and NCI-H23 cell lines; experiment: Cytotoxicity, summary statements over three human cancer cell lines; assay type: cell-based; conditions: SW620, PC-3, NCI-H23
Excerpt: Three human cancer cell lines: colon cancer (SW620), prostate cancer (PC3), and lung cancer (NCI-H23) were used for sceening the cytotoxicity of the compounds. The cancer cells were purchased from American Type Culture Collection (Manassas, VA, USA). Other reagents/media for cell culture were obtained from GIBCO (Grand Island, New York, USA). The testing cancer cells were culture in Dulbecco’s Modified Eagle Medium until confluence. Then, they were trypsinized and suspended at the level of 3 × 10^4 cells/mL of cell culture medium. On day 0, cancer cells were seeded at a volume of 180 µL/well of 96-well plates and incubated for 24 h at 37 °C in a 5% CO2 incubator. On day 1, 20 µL of various concentrations of testing compounds were added to each well of the 96-well plates. Chemicals were dissolved in dimethyl sulfoxide (DMSO, stock) and diluted in culture medium (1% DMSO) before adding to the culture. After 48 h incubation, the sulforhodamine B assay was used for cell density determination with slight modifications[22]–[26]. The Probits were used for the calculation of IC50 values. The reported IC50 were the averages of three independent screening (SD ≤ 10%)[27].
Overally, 5-fluorinated compounds (4i–p and 5d–f) were slightly more cytotoxic than non-fluorinated ones (4a–h, 5a–c). […]

melting point: 186 to 187 °C
Compound: COc1ccc(/C=N/NC(=O)CN2C(=O)Cc3cc(F)ccc32)c(O)c1 [Compound 4o, (E)-N'-(2-Hydroxy-4-methoxybenzylidene)-2-(5-fluoro-2-oxoindolin-1-yl)acetohydrazide]
IC50 (SW620 (colon cancer)): 1880 ± 20 nM
IC50 (PC3 (prostate cancer)): 1830 ± 70 nM
IC50 (NCI-H23 (lung cancer)): 1000 ± 10 nM
IC50 [1]: 12800 ± 710 nM
Late apoptotic cell population, dose dependence (U937 cells; U937, 5 µM): increased late apoptotic cell population
Apoptotic effects compared among the representative compounds (U937 cells; U937, 50 µM): more prominent
Induction of apoptosis (Annexin V-FITC/PI) (U937 cells; U937, 50 µM): induced early, and more substantially, late apoptosis
IC50 values relative to PAC-1 [2]: three- to five-fold lower

From publication PMC8861050, “Design, synthesis and evaluation of novel 2-oxoindoline-based acetohydrazides as antitumor agents” (Scientific Reports, 2022)
